In US9402846B2, “Combination of inhibitor of B-Raf and inhibitor of AKT in the treatment of cancer” (Novartis AG, priority 2009, dated 2016):

Key:
Type in all cases: cell-based
16R5-2 = assay: Cell growth inhibition assay (Cell Titer Glo, 3 days); conditions: Homo sapiens; 16R5-2, melanoma, Compound A resistant clone; BRAF_V600E, KRAS WT; mean ± std; read-out: IC50 Single Agent
Procedure: (§1) Human colon tumor lines, Colo205, DLD1, HCC2998, HCT15, HCT8, HT29, KM-12, LS1034, LS174T, NCI-H508, RKO, SW1417, SW1463, SW480, SW837 and T84, and human melanoma line A375 were from ATCC. A375PF11 was derived from A375, 12R5-1, 12R5-3, 12R8-1, 12R8-3, 16R5-2, 16R6-3 and 16R6-4 are single cell clones derived from mixed populations of A375PF11 cells that were selected to grow in Compound A to concentrations of 1200 and 1600 nM. All lines were cultured in RPMI 1640 medium containing 10% fetal bovine serum (FBS).
(§2) All cells were cultured for a minimum of 72 hours prior to cell plating. Cells were assayed in a 96-well tissue culture plate (NUNC 136102) of RPMI medium containing 10% FBS for all cells at 1,000 cells per well. Approximately 24 hours after plating, cells were exposed to ten, three-fold serial dilutions of compound or the combination of the two agents at a constant molar to molar ratio of 1:10 Compound A to Compound B in RPMI media containing 10% FBS. Cells were incubated in the presence of compounds for 3 days. ATP levels were determined by adding Cell Titer Glo® (Promega) according to the manufacturer's protocol. Briefly, Cell Titer Glo® was added each plate, incubated for 30 minutes then luminescent signal was read on the SpectraMax L plate reader with a 0.5 sec integration time.
(§3) Inhibition of cell growth was estimated after treatment with compound or combination of compounds for three days and comparing the signal to cells treated with vehicle (DMSO). Cell growth was calculated relative to vehicle (DMSO) treated control wells.
(§4) Combination effects on potency were evaluated using Combination Index (CI) which was calculated with the back-interpolated IC50 values and the mutually non-exclusive equation derived by Chou and Talalay (1): CI=Da/IC50(a)+Db/IC50(b)+(Da×Db)/(IC50(a)×IC50(b))
(§5) In general, a CI value <0.9, between 0.9 and 1.1, or >1.1 indicates synergy, additivity and antagonism, respectively. In general, the smaller the CI number, the greater is the strength of synergy.
(§6) The combination effects on the response scale were quantified by Excess Over Highest Single Agent (EOHSA) based on the concept of nonlinear blending as described in detail by Peterson and Novick (2007) and Peterson (2010) [(2;3) [Peterson and Novick, 2007; Peterson, 2010]. EOHSA values are defined as increases in improvement (here, in ‘percentage points’ (ppts) difference) produced by the combination over the best single agent at its component dose level for the combination. For single agent and combination treatments, cells were exposed to compounds at a fixed-dose-ratio, and dose response curves were fit to the experimental data and analyzed using regression models. At specified total dose levels of IC50 along the dose response curve, the dose combination (corresponding to IC50) was determined for making EOHSA statistical inferences.

SW1417 = assay: as above; conditions: Homo sapiens; SW1417, colon; BRAF V600E, KRAS WT, PIK3CA WT; mean ± std; read-out: IC50 Single Agent
Procedure: as §1, §2, §3, §4, §5, §6

12R5-1 = assay: as above; conditions: Homo sapiens; 12R5-1, melanoma, Compound A resistant clone; BRAF_V600E, KRAS WT; mean ± std; read-out: IC50 Single Agent
Procedure: as §1, §2, §3, §4, §5, §6

KM-12 = assay: as above; conditions: Homo sapiens, KM12; KM-12, colon; BRAF WT, KRAS WT, PIK3CA WT; mean ± std; read-out: IC50 Single Agent
Procedure: as §1, §2, §3, §4, §5, §6

12R8-1 = assay: as above; conditions: Homo sapiens; 12R8-1, melanoma, Compound A resistant clone; BRAF_V600E, KRAS WT; mean ± std; read-out: IC50 Single Agent
Procedure: as §1, §2, §3, §4, §5, §6

HT29 = assay: as above; conditions: Homo sapiens, HT-29; HT29, colon; BRAF V600E, KRAS WT, PIK3CA P449T; mean ± std; read-out: IC50 Single Agent
Procedure: as §1, §2, §3, §4, §5, §6

[1] = test system: 12 colon lines without BRAF V600E mutation; assay: Cell growth inhibition assay (Cell Titer Glo, 3 days), summary over lines; conditions: Homo sapiens; the other 12 colon lines without BRAF V600E mutation; single agent
Procedure: (§7) Human colon tumor lines, Colo205, DLD1, HCC2998, HCT15, HCT8, HT29, KM-12, LS1034, LS174T, NCI-H508, RKO, SW1417, SW1463, SW480, SW837 and T84, and human melanoma line A375 were from ATCC.
(§8) All cells were cultured for a minimum of 72 hours prior to cell plating. […] Cells were incubated in the presence of compounds for 3 days. ATP levels were determined by adding Cell Titer Glo® (Promega) according to the manufacturer's protocol. Briefly, Cell Titer Glo® was added each plate, incubated for 30 minutes then luminescent signal was read on the SpectraMax L plate reader with a 0.5 sec integration time.
as §3, §4, §5
as §6, with “EOHSA” for “The combination effects on the response scale were quantified by Excess Over Highest Single Agent (EOHSA) based on the concept of nonlinear blending as described in detail by Peterson and Novick (2007) and Peterson (2010) [(2;3) [Peterson and Novick, 2007; Peterson, 2010]. EOHSA”

[2] = test system: four colon cell lines with BRAF V600E mutation; assay: as above; conditions: Homo sapiens; span over the four colon cell lines with BRAF V600E mutation; single agent
Procedure: as §7, §8, §3, §4, §5
as §6, with “EOHSA” for “The combination effects on the response scale were quantified by Excess Over Highest Single Agent (EOHSA) based on the concept of nonlinear blending as described in detail by Peterson and Novick (2007) and Peterson (2010) [(2;3) [Peterson and Novick, 2007; Peterson, 2010]. EOHSA”

HCC2998 = assay: Cell growth inhibition assay (Cell Titer Glo, 3 days); conditions: Homo sapiens, HCC 2998; HCC2998, colon; BRAF WT, KRAS A146T, PIK3CA WT; mean ± std; read-out: IC50 Single Agent
Procedure: as §1, §2
(§9) Inhibition of cell growth was estimated after treatment with compound or combination of compounds for three days and comparing the signal to cells treated with vehicle (DMSO). Cell growth was calculated relative to vehicle (DMSO) treated control wells. […]

SW1463 = assay: as above; conditions: Homo sapiens; SW1463, colon; BRAF WT, KRAS G12C, PIK3CA WT; mean ± std; read-out: IC50 Single Agent
Procedure: as §1, §2, §9

LS174T = assay: as above; conditions: Homo sapiens, colon, BRAF WT, KRAS G12D, PIK3CA H1047R, mean ± std, read-out: IC50 Single Agent
Procedure: as §1, §2, §9

HCT8 = assay: as above; conditions: Homo sapiens, HCT-8; HCT8, colon; BRAF WT, KRAS G13D, PIK3CA E545K; mean ± std; read-out: IC50 Single Agent
Procedure: as §1, §2, §9

12R8-3 = assay: as above; conditions: Homo sapiens; 12R8-3, melanoma, Compound A resistant clone; BRAF_V600E, KRAS WT; mean ± std; read-out: IC50 Single Agent
Procedure: as §1, §2, §9

16R6-4 = assay: as above; conditions: Homo sapiens; 16R6-4, melanoma, Compound A resistant clone; BRAF_V600E, KRAS WT; mean ± std; read-out: IC50 Single Agent
Procedure: as §1, §2, §9

RKO = assay: as above; conditions: Homo sapiens, colon, BRAF V600E, KRAS WT, PIK3CA H1047R, mean ± std, read-out: IC50 Single Agent
Procedure: as §1, §2, §9

12R5-3 = assay: as above; conditions: Homo sapiens; 12R5-3, melanoma, Compound A resistant clone; BRAF_V600E, KRAS WT; mean ± std; read-out: IC50 Single Agent
Procedure: as §1, §2, §9

HCT15 = assay: as above; conditions: Homo sapiens, HCT-15; HCT15, colon; BRAF WT, KRAS G13D, PIK3CA D549N, E545K; mean ± std; read-out: IC50 Single Agent
Procedure: as §1, §2, §9

16R6-3 = assay: as above; conditions: Homo sapiens; 16R6-3, melanoma, Compound A resistant clone; BRAF_V600E, KRAS WT; mean ± std; read-out: IC50 Single Agent
Procedure: as §1, §2, §9

SW837 = assay: as above; conditions: Homo sapiens; SW837, colon; BRAF WT, KRAS G12C, PIK3CA WT; mean ± std; read-out: IC50 Single Agent
Procedure: as §1, §2, §9

NCI-H508 = assay: as above; conditions: Homo sapiens, NCl-H508, colon, BRAF G596R, KRAS WT, PIK3CA E545K, mean ± std, read-out: IC50 Single Agent
Procedure: as §1, §2, §9

LS1034 = assay: as above; conditions: Homo sapiens, LS-1034; LS1034, colon; BRAF WT, KRAS A146T, PIK3CA WT; mean ± std; read-out: IC50 Single Agent
Procedure: as §1, §2, §9

Colo205 = assay: as above; conditions: Homo sapiens, COLO 205; Colo205, colon; BRAF V600E, KRAS WT, PIK3CA WT; mean ± std; read-out: IC50 Single Agent
Procedure: as §1, §2, §9

T84 = assay: as above; conditions: Homo sapiens; T84, colon; BRAF WT, KRAS G13D, PIK3CA E542K; mean ± std; read-out: IC50 Single Agent
Procedure: as §1, §2, §9

SW480 = assay: as above; conditions: Homo sapiens; SW480, colon; BRAF WT, KRAS G12C, PIK3CA WT; mean ± std; read-out: IC50 Single Agent
Procedure: as §1, §2, §9

A375PF11 = assay: as above; conditions: Homo sapiens, A375P-F11, melanoma, BRAF_V600E, KRAS WT, mean ± std, read-out: IC50 Single Agent
Procedure: as §1, §2, §9

DLD1 = assay: as above; conditions: Homo sapiens, DLD-1; DLD1, colon; BRAF WT, KRAS G13D, PIK3CA E545K, D549N; mean ± std; read-out: IC50 Single Agent
Procedure: as §1, §2, §9

[3] = test system: seven Compound A resistant clones derived from the A375PF11 melanoma cell line; assay: Cell growth inhibition assay (Cell Titer Glo, 3 days), summary over clones; conditions: Homo sapiens, A375P-F11; seven Compound A resistant clones (12R8-3, 12R8-1, 12R5-3, 16R5-2, 16R6-3, 16R6-4, 12R5-1); single agent
Procedure: as §1
All cells were cultured for a minimum of 72 hours prior to cell plating. […] ATP levels were determined by adding Cell Titer Glo® (Promega) according to the manufacturer's protocol. Briefly, Cell Titer Glo® was added each plate, incubated for 30 minutes then luminescent signal was read on the SpectraMax L plate reader with a 0.5 sec integration time.
as §3
Combination effects on potency were evaluated using Combination Index (CI) which was calculated with the back-interpolated IC50 values and the mutually non-exclusive equation derived by Chou and Talalay (1): CI=Da/IC50(a)+Db/IC50(b)+(Da×Db)/(IC50(a)×IC50(b)) […]

Row | SMILES | IC50 (16R5-2) [µM] | IC50 (SW1417) [µM] | IC50 (12R5-1) [µM] | IC50 (KM-12) [µM] | IC50 (12R8-1) [µM] | IC50 (HT29) [µM] | IC50 [2] [µM] | IC50 (SW1463) [µM] | IC50 (LS174T) [µM] | IC50 (HCT8) [µM] | IC50 (12R8-3) [µM] | IC50 (16R6-4) [µM] | IC50 (RKO) [µM] | IC50 (12R5-3) [µM] | IC50 (HCT15) [µM] | IC50 (16R6-3) [µM] | IC50 (SW837) [µM] | IC50 (NCI-H508) [µM] | IC50 (LS1034) [µM] | IC50 (Colo205) [µM] | also measured
1 | CC(C)(C)c1nc(-c2cccc(NS(=O)(=O)c3c(F)cccc3F)c2F)c(-c2ccnc(N)n2)s1 [Compound A, N-{3-[5-(2-Amino-4-pyrimidinyl)-2-(1,1-dimethylethyl)-1,3-thiazol-4-yl]-2-fluorophenyl}-2,6-difluorobenzenesulfonamide] | > 10 | 0.101 ± 0.031 | > 10 | > 10 | > 10 | 0.028 ± 0.007 | 0.018 to 3.32 | > 10 | > 10 | > 10 | > 10 | > 10 | 3.14 ± 3.47 | > 10 | > 10 | > 10 | 5.44 ± 7.69 | > 10 | > 10 | 0.018 ± 0.003 | IC50 [1]: > 5 µM; IC50 (HCC2998): > 10 µM; IC50 (T84): > 10 µM; IC50 (SW480): > 10 µM; IC50 (A375PF11): 0.063 µM; IC50 (DLD1): > 10 µM
2 | Cn1ncc(Cl)c1-c1cc(C(=O)N[C@H](CN)Cc2ccc(F)c(F)c2)oc1Cl [Compound B, N-{(1S)-2-amino-1-[(3,4-difluorophenyl)methyl]ethyl}-5-chloro-4-(4-chloro-1-methyl-1H-pyrazol-5-yl)-2-furancarboxamide] | 7.05 ± 1.33 | 2.59 ± 1.76 | > 10 | 1.41 ± 0.961 | > 10 | 0.503 ± 0.073 | 0.29 to 2.59 | 5.23 ± 7.4 | 3.75 ± 0.945 | 0.527 ± 0.036 | > 10 | > 10 | 0.29 ± 0.07 | > 10 | 4.21 ± 0.834 | > 10 | > 10 | 0.234 ± 0.247 | 6.39 ± 3.55 | 0.908 ± 0.605 | IC50 [3]: ≥ 7 µM; IC50 (T84): > 10 µM; IC50 (SW480): 5.62 ± 1.85 µM; IC50 (A375PF11): > 10 µM; IC50 (DLD1): > 10 µM
